Target: ΔNFun30 (printed ⊗NFun30), Fun30 from C. albicans, orf19.6291 (Candida albicans, UniProt A0A1D8PTJ0)
Test: biochemical

Nc1ncnc2c1ncn2[C@@H]1O[C@H](COP(=O)(O)OP(=O)(O)OP(=O)(O)O)[C@@H](O)[C@H]1O [ATP]
Kd: 1320 ± 30 nM

Reference: publication doi:10.1101/2021.07.22.453354v1 (biorxiv, 2021)
